The text below walks through data of US6589984B1, “Benzofurylpyrone derivatives” (Teijin Limited, priority 1998, dated 2003).

For one experiment, the system named is Human hepatic cancer cells HepG2. Briefly: TG production inhibiting activity (14C-acetic acid incorporation into TG) in HepG2 cells. Type of experiment: cell-based. Conditions: Homo sapiens, HepG2; group criterion, alternatives: IC50 at least 10 μM and less than 100 μM, or at least 5% and less than 30% inhibition at 1 μM, or at least 30% and less than 50% inhibition at 10 μM. How it is done: Human hepatic cancer cells HepG2 were inoculated into a 24-well plate (Costar No. 3524) at 4×10^4 cells/well, and 1 ml of medium (eRDF medium containing 10% bovine serum (Kyokuto Chemical Co.)) was used for 6 day culturing with 5% CO2 at 37° C. After drawing off the supernatant medium, the cells were freshly rinsed with 1 ml of PBS(−) buffer solution (Takara Shuzo) and drawn off. This procedure was repeated twice and then 1 ml of fresh medium (eRDF medium) was added.
6-(benzofuran-2-yl)-3,5-dimethyl-4-hydroxy-2H-pyran-2-one (Example 2) was dissolved in dimethylsulfoxide (DMSO) to prepare a 20 mM sample stock solution. A diluted solution was obtained by diluting the sample solution with DMSO.
To the cells prepared above there were added the sample stock solution or its diluted solution at 5 μl per well and 10 μl of ^14C-acetic acid solution (a solution of Amersham Code No. CFA13 diluted 4.4-fold with PBS(−) buffer), and culturing was carried out for one day with 5% CO2 at 37° C.
After the culturing was completed, the culture solution was removed, and 1 ml of extraction solution (a mixture of n-hexane and isopropyl alcohol at 2:1) was added for extraction treatment on the lipid components in the cells. After the treatment, the extract containing the obtained lipid components was air-dried, the residue was redissolved in 20 μl of a mixed solution of n-hexane and ethyl acetate at 9:1, and the solution was spotted on a thin-layer chromatography plate (S319, Tokyo Kasei) and developed by thin-layer chromatography with the mixed solution mentioned above. After air-drying, the lipid components were colored with iodine vapor, the portion corresponding to TG was cut out, and the amount of TG biosynthesized was measured with a liquid scintillation counter.
The term IC50 denotes the concentration that inhibits the measured activity by half. Read a low IC50 as higher potency. Compound `Cc1c(-c2cc3cc(C=O)ccc3o2)oc(=O)c(C)c1O` [Example 7, 3,5-dimethyl-6-(5-formylbenzofuran-2-yl)-4-hydroxy-2H-pyran-2-one] had an IC50 of 10 to 100 µM. As for `CC(=O)Oc1c(C)c(-c2cc3cc(C=O)ccc3o2)oc(=O)c1C` [Example 8, 4-acetyloxy-3,5-dimethyl-6-(5-formylbenzofuran-2-yl)-2H-pyran-2-one], the IC50 was in the range of 10 to 100 µM. On the same count and under the same terms, the same measure for `CC(=O)Oc1c(C)c(-c2cc3ccc(O)cc3o2)oc(=O)c1C` [Example 18, 4-acetyloxy-3,5-dimethyl-6-(6-hydroxybenzofuran-2-yl)-2H-pyran-2-one]: 10 to 100 µM; for `COC(=O)c1ccc2cc(-c3oc(=O)c(C)c(O)c3C)oc2c1` [Example 22, 3,5-dimethyl-4-hydroxy-6-(6-(methoxycarbonyl)benzofuran-2-yl)-2H-pyran-2-one]: 10 to 100 µM. As for `CC(=O)Oc1c(C)c(-c2cc3ccc(N(C)C)cc3o2)oc(=O)c1C` [Example 23, 4-acetyloxy-3,5-dimethyl-6-(6-dimethylaminobenzofuran-2-yl)-2H-pyran-2-one], the IC50 lay in the range of 10 to 100 µM. On to `CC(=O)Oc1c(C)c(-c2cc3ccc(-c4ccco4)cc3o2)oc(=O)c1C` [Example 24, 4-acetyloxy-3,5-dimethyl-6-(6-(2-furyl)benzofuran-2-yl)-2H-pyran-2-one], for which the IC50 was in the range of 10 to 100 µM.

The compound `Cc1c(O)cc(-c2cc3ccccc3o2)oc1=O` [Example 32, 6-(benzofuran-2-yl)-4-hydroxy-3-methyl-2H -pyran-2-one] came in with an IC50 of 10 to 100 µM. In turn, `Cc1c(O)c(-c2ccccc2)c(-c2cc3ccccc3o2)oc1=O` [Example 35, 6-(benzofuran-2-yl)-4-hydroxy-3-methyl-5-phenyl-2H-pyran-2-one] showed an IC50 of 10 to 100 µM.

The compound `COc1c(-c2cc3ccccc3o2)oc(=O)c(C)c1O` [Example 37, 6-(benzofuran-2-yl)-4-hydroxy-5-methoxy-3-methyl-2H-pyran-2-one] displayed an IC50 of 10 to 100 µM. Compound `Cc1c(-c2cc3ccccc3o2)oc(=O)c(C(C)C)c1O` [Example 38, 6-(benzofuran-2-yl)-4-hydroxy-3-isopropyl-5-methyl-2H-pyran-2-one] showed an IC50 of 10 to 100 µM. Compound `Cc1c(-c2cc3ccccc3o2)oc(=O)c(C)c1OS(=O)(=O)C(F)(F)F` [Example 43, 6-(benzofuran-2-yl)-3,5-dimethyl-4-trifluoromethanesulfonyloxy-2H-pyran-2-one] came in with a half-maximal inhibitory concentration (IC50) of 10 to 100 µM. The compound `CCNc1ccc2oc(-c3oc(=O)c(C)c(O)c3C)cc2c1` [Example 46, 3,5-dimethyl-6-(5-(ethylamino)benzofuran-2-yl)-4-hydroxy-2H-pyran-2-one] had an IC50 of 10 to 100 µM.

Still in this experiment, the particulars now being: Homo sapiens, HepG2; group criterion, alternatives: IC50 less than 10 μM, or at least 30% inhibition at 1 μM, or at least 50% inhibition at 10 μM.
The compound `CC(=O)Oc1c(C)c(-c2cc3ccccc3o2)oc(=O)c1C` [Example 1, 4-acetyloxy-6-(benzofuran-2-yl)-3,5-dimethyl-2H-pyran-2-one] had an IC50 below 10 µM.

For `Cc1c(-c2cc3ccccc3o2)oc(=O)c(C)c1OC(=O)c1ccccc1` [Example 3, 6-(benzofuran-2-yl)-4-benzoyloxy-3,5-dimethyl-2H-pyran-2-one], the IC50 is below 10 µM. With `Cc1c(-c2cc3ccccc3o2)oc(=O)c(C)c1OS(C)(=O)=O` [Example 4, 6-(benzofuran-2-yl)-3,5-dimethyl-4-methanesulfonyloxy-2H-pyran-2-one], the concentration for half-maximal inhibition (IC50) was below 10 µM. `Cc1c(-c2cc3cc(C=C4SC(=O)NC4=O)ccc3o2)oc(=O)c(C)c1O` [Example 9, 3,5-dimethyl-6-(5-((3,5-dioxo-2,4-thiazolidinylidene)methyl)benzofuran-2-yl)-4-hydroxy-2H-pyran-2-one]: the IC50 is below 10 µM.

For `CCCCCc1c(-c2cc3ccccc3o2)oc(=O)c(C)c1O` [Example 11, 6-(benzofuran-2-yl)-4-hydroxy-3-methyl-5-n-pentyl-2H-pyran-2-one], the IC50 was below 10 µM. Still for that read-out and setting: the same measure for `COc1ccc2oc(-c3oc(=O)c(C)c(O)c3C)cc2c1` [Example 12, 3,5-dimethyl-4-hydroxy-6-(5-methoxybenzofuran-2-yl)-2H-pyran-2-one]: below 10 µM; for `COc1cccc2cc(-c3oc(=O)c(C)c(O)c3C)oc12` [Example 13, 3,5-dimethyl-4-hydroxy-6-(7-methoxybenzofuran-2-yl)-2H-pyran-2-one]: below 10 µM; for `CC(=O)Oc1c(C)c(-c2cc3ccc(OS(=O)(=O)C(F)(F)F)cc3o2)oc(=O)c1C` [Example 19, 4-acetyloxy-3 ,5-dimethyl-6-(6-(trifluoromethanesulfonyloxy)benzofuran-2-yl)-2H-pyran-2-one]: below 10 µM.

The compound `CC(=O)Oc1c(C)c(-c2cc3ccc(-c4cccs4)cc3o2)oc(=O)c1C` [Example 25, 4-acetyloxy-3,5-dimethyl-6-(6-(2-thienyl)benzofuran-2-yl)-2H-pyran-2-one] yielded an IC50 below 10 µM. On the same count and under the same terms, to `COc1ccc2cc(-c3oc(=O)c(C)c(O)c3C)oc2c1` [Example 26, 3,5-dimethyl-4-hydroxy-6-(6-methoxybenzofuran-2-yl)-2H-pyran-2-one] belongs below 10 µM; to `Cc1c(-c2cc3cc(OCc4cncnc4)ccc3o2)oc(=O)c(C)c1O` [Example 27, 3,5-dimethyl-4-hydroxy-6-(5-(5-pyrimidinylmethoxy)benzofuran-2-yl)-2H-pyran-2-one], below 10 µM. Consider `Cc1c(-c2cc3ccccc3o2)oc(=O)c(C)c1OC(=O)c1ccc(CO)cc1` [Example 28, 6-(benzofuran-2-yl)-3,5-dimethyl-4-(4-hydroxymethylbenzoyloxy)-2H-pyran-2-one], for which the IC50 was below 10 µM. On to `COc1ccc(C(=O)Oc2c(C)c(-c3cc4ccccc4o3)oc(=O)c2C)cc1` [Example 30, 6-(benzofuran-2-yl)-3,5-dimethyl-4-(4-methoxybenzoyloxy)-2H-pyran-2-one], for which the IC50 was below 10 µM. Consider `Cc1c(-c2cc3ccccc3o2)oc(=O)c(C)c1OC(=O)Cc1ccccc1` [Example 31, 6-(benzofuran-2-yl)-3,5-dimethyl-4-phenylacetyloxy-2H-pyran-2-one], for which the IC50 is below 10 µM. On to `CCc1c(-c2cc3ccccc3o2)oc(=O)c(C)c1O` [Example 33, 6-(benzofuran-2-yl)-5-ethyl-4-hydroxy-3-methyl-2H-pyran-2-one], for which the IC50 was below 10 µM. In turn, `Cc1c(O)c(C(C)C)c(-c2cc3ccccc3o2)oc1=O` [Example 34, 6-(benzofuran-2-yl)-4-hydroxy-5-isopropyl-3-methyl-2H-pyran-2-one] yielded an IC50 below 10 µM. Regarding `Cc1c(O)c(Cc2ccccc2)c(-c2cc3ccccc3o2)oc1=O` [Example 36, 6-(benzofuran-2-yl)-5-benzyl-4-hydroxy-3-methyl-2H-pyran-2-one], the half-inhibitory concentration (IC50) was below 10 µM. Consider `Cc1c(-c2cc3ccccc3o2)oc(=O)c(C)c1OC(=O)C(C)C` [Example 39, 6-(benzofuran-2-yl)-3,5-dimethyl-4-isobutyryloxy-2H-pyran-2-one], for which the IC50 was below 10 µM.

In turn, `Cc1c(-c2cc3ccccc3o2)oc(=O)c(C)c1OC(=O)COc1ccccc1` [Example 42, 6-(benzofuran-2-yl)-3,5-dimethyl-4-phenoxyacetyloxy-2H-pyran-2-one] showed an IC50 below 10 µM. For the compound `Cc1c(-c2cc3cc([N+](=O)[O-])ccc3o2)oc(=O)c(C)c1O` [Example 45, 3,5-dimethyl-4-hydroxy-6-(5-nitrobenzofuran-2-yl)-2H-pyran-2-one], the concentration for half-maximal inhibition (IC50) was below 10 µM.

Compound `Cc1c(-c2cc3cc(N(C)C)ccc3o2)oc(=O)c(C)c1O` [Example 48, 3,5-dimethyl-6-(5-(dimethylamino)benzofuran-2-yl)-4-hydroxy-2H-pyran-2-one] registered a concentration for half-maximal inhibition (IC50) below 10 µM. The compound `Cc1c(-c2cc3cc(N(Cc4ccccc4)Cc4ccccc4)ccc3o2)oc(=O)c(C)c1O` [Example 49, 6-(5-(dibenzylamino)benzofuran-2-yl)-3,5-dimethyl-4-hydroxy-2H-pyran-2-one] gave an IC50 below 10 µM. The compound `Cc1c(-c2cc3ccccc3o2)oc(=O)c(C)c1OC(=O)c1ccncc1` [Example 50, 6-(benzofuran-2-yl)-3,5-dimethyl-4-isonicotinoyloxy-2H-pyran-2-one] had an IC50 below 10 µM. Regarding `Cc1c(-c2cc3cc(OCc4ccccc4)ccc3o2)oc(=O)c(C)c1OC(=O)CNC(=O)OC(C)(C)C` [Example 52, 6-(5-benzyloxybenzofuran-2-yl)-4-(2-(t-butoxycarbonylamino)acetyloxy)-3,5-dimethyl-2H-pyran-2-one], the IC50 was below 10 µM. Turning to `CC(=O)Nc1ccc(C(=O)Oc2c(C)c(-c3cc4cc(OCc5ccccc5)ccc4o3)oc(=O)c2C)cc1` [Example 54, 4-(4-(acetylamino)benzoyloxy)-6-(5-benzyloxybenzofuran-2-yl)-3,5-dimethyl-2H-pyran-2-one], the IC50 is below 10 µM. Take `Cc1c(-c2cc3cc(OCc4ccccc4)ccc3o2)oc(=O)c(C)c1OC(=O)c1cccnc1` [Example 55, 6-(5-benzyloxybenzofuran-2-yl)-3,5-dimethyl-4-nicotinoyloxy-2H-pyran-2-one]: the IC50 was below 10 µM.
